Experimental data published in patent publication US12723055B2, “Phosphoantigen prodrug compounds” (priority 2018, dated 2026).

How the values were obtained:
human CD8+ T cells = assay: Activation of human CD8+ T cells in PBMC (CD69 and CD25 upregulation, flow cytometry); format: cell-based; details: for Concentration without CD8+ T cell activation relative to Vγ9/Vδ2 T-cell activation EC50: 1 μM versus calculated EC50; for Activation of CD8+ T cells: human PBMC, 20 h, up to 1 μM, CD69/CD25
Experimental: (§1) FIG. 11. FACS data showing a lack of activation of human CD8+ T cells by the HMBP phosphonate ProPAgen 4d. Human PBMCs were incubated with the indicated concentrations of ProPAgen 4d for 20 h. TCR CD8^+ T cells were then assessed for the upregulation of cell surface markers, CD69 and CD25, as a readout of the activation of CD8^+ T cells. Data was collected and analysed individually from two separate donors: Donor (1) results shown in FIG. 11A, Donor (2) results shown in FIG. 11B.
as §1, with “12.” for “11.”, “9d.” for “4d.”, “9d” for “4d”, “12A,” for “11A,”, “12B.” for “11B.”
Like peripheral blood γδ T-cells, peripheral blood CD8+ T-cells lack appreciable levels of surface CD69 or CD25 under steady state conditions, but upon T-cell receptor (TCR) stimulation upregulate both T-cell activation markers within 72 hours. PAg responsive CD8 T-cells were then distinguished by TCR CD8 expression and assessed for the upregulation CD69 and CD25.
Blood was obtained in the presence of a mixture of Heparin and Ethylenediaminetetraacetic acid (EDTA) as anticoagulants (2 U/ml heparin, 1.5 mM EDTA) from consented healthy donors (approved by the NRES Committee West Midlands ethical board; REC reference 14/WM/1254). Blood was then layered on a density gradient medium, lymphoprep (Stem Cell Technologies) and Peripheral blood mononuclear cells (PBMCs) were purified by gradient centrifugation. The cells were washed 2 times with Phosphate Buffered Saline (PBS), then resuspended in RPMI-1640 media supplemented with 2 mM L-glutamine, 25 mM HEPES, 1% sodium pyruvate, 50 μg/ml penicillin/streptomycin (Invitrogen) and 10% foetal calf serum.
(§2) Untreated and treated PBMCs were labelled with Zombie aqua viability dye (Biolegend) and subsequently were stained with a mixture of BV421-conjugated anti-CD3 (UCHT1, Biolegend), BV650-conjugated anti-CD8 (SK1; BD Bioscience), FITC-conjugated anti-CD25 (M-A25, Biolegend), PE-conjugated anti-CD69 (TP1.55.3; Beckman Coulter) and PE Cy5-conjugated anti-Vγ9 TCR (IMMU360, Beckman Coulter) and APC-conjugated anti-Vδ2 TCR (123R3, Miltenyi Biotech) antibodies. The percentages of CD69^+CD25^+ within CD8^+ T cell subset or Vγ9Vδ2 T-cell population were measured using flow cytometer. Data were analysed using FlowJo V10 software.

human Vγ9/Vδ2+ T cells = assay: Activation of human Vγ9/Vδ2+ T cells in PBMC (CD69 and CD25 upregulation, flow cytometry); format: cell-based; details: for Vγ9/Vδ2 T-cell activation potency (in words): human PBMC from healthy donors, 18-20 h, CD69/CD25, compared with HMBP phosphate ProPAgens or HMBPP; for EC50: human PBMC, 18 hr incubation, CD69 and CD25 upregulation
Experimental: FIG. 7. Activation of human Vγ9/Vδ2^+ T cells by HMBP phosphonate ProPAgens 4d and 9d. Human peripheral blood mononuclear cells (PBMC) were incubated with the indicated concentrations of ProPAgens 4d (left) and 9d (right) for 18 hr. TCR Vγ9/Vδ2^+ T cells were then assessed for the upregulation of cell surface markers, CD69 and CD25, as a readout to the activation of Vγ9/Vδ2^+ T cells. EC50 for both ProPAgens is ca. 8 pM (picomolar).
FIG. 8. FACS data showing the activation of human Vγ9/Vδ2^+ T cells by the HMBP phosphonate ProPAgen 4d in a dose-dependent manner. Human peripheral blood mononuclear cells (PBMC) were incubated with the indicated concentrations of ProPAgens 4d for 18 h (FIG. 8A) or 20 h (FIGS. 8B and 8C). For 20 h incubations, data was collected and analysed individually from two separate donors: Donor (1) results shown in FIG. 8B, Donor (2) results shown in FIG. 8C. TCR Vγ9/Vδ2^+ T cells were then assessed for the upregulation of cell surface markers, CD69 and CD25, as a readout to the activation of Vγ9/Vδ2^+ T cells.
FIG. 9. FACS data showing the activation of human Vγ9/Vδ2^+ T cells by the HMBP phosphonate ProPAgen 9d in a dose-dependent manner. Human peripheral blood mononuclear cells (PBMC) were incubated with the indicated concentrations of ProPAgens 9d for 18 h (FIG. 9A) or 20 h (FIGS. 9B and 9C). For 20 h incubations, data was collected and analysed individually from two separate donors: Donor (1) results shown in FIG. 9B, Donor (2) results shown in FIG. 9C. TCR Vγ9/Vδ2^+ T cells were then assessed for the upregulation of cell surface markers, CD69 and CD25, as a readout to the activation of Vγ9/Vδ2^+ T cells.
FIG. 10. […] Data was collected and analysed individually from two separate donors: Donor (1) results shown in FIG. 10A, Donor (2) results shown in FIG. 10B. TCR Vγ9/Vδ2^+ T cells were then assessed for the upregulation of cell surface markers, CD69 and CD25, as a readout to the activation of Vγ9/Vδ2^+ T cells.
Peripheral blood γδ T-cells lack appreciable levels of surface CD69 or CD25 under steady state conditions, but upon T-cell receptor (TCR) stimulation upregulate both T-cell activation markers within 72 hours. PAg responsive Vγ9/Vδ2 T-cells were then distinguished by TCR Vγ9 and Vδ2 expression and assessed for the upregulation CD69 and CD25. […]
as §2, with “The percentages of CD69^+CD25^+ within CD8^+ T cell subset or Vγ9Vδ2 T-cell population were measured using flow cytometer.” left out

[1] = Stability in human serum at 37° C. monitored by 31P NMR; format: in vitro ADME; details: 12 h
Experimental: FIG. 5: Stability of HMBP phosphonate ProPAgen 4d in human serum at 37° C. for 12 hours as monitored by ^31P NMR. Prodrug 4d (5.0 mg) was dissolved in DMSO-d6 (0.10 mL) and D2O (0.15 mL). All ^31P NMR spectra were recorded at 37° C. Initially, a ^31P NMR scan of prodrug 4d (5.0 mg) in DMSO-d6 (0.10 mL) and D2O (0.15 mL) was recorded (shown as compound 4d alone in the figure). Following this, a previously defrosted human serum (0.30 mL) was added to the NMR tube and a spectrum immediately run. Spectra were recorded at 30 min after the addition and then at even time intervals over 12 hr.
FIG. 6: Stability of HMBP phosphonate ProPAgen 9a in human serum at 37° C. for 12 hours as monitored by ^31P NMR. Same as for compound 4d above. […] In fact, these are eight peaks as predicted and two extra peaks are seen when zoomed into these peaks to make the predicted eight phosphorous peaks of such compounds.
ProPAgen 4d with human serum at 37° C. for 12 h and monitored the sample by ^31P-NMR as reported previously^11.

[2] = test system: T24 urinary bladder carcinoma cell lines; assay: Cytotoxicity assay: specific lysis of T24 bladder cancer cells by Vγ9/Vδ2 T-cells; format: cell-based, human; details: T24 cells incubated 4 hours with 100 pM ProPAgen 4d; effector target ratio 10:1, 18 hours; compared with 10 μM zoledronate and HMBPP
Experimental: FIG. 13. Cytotoxocity Assay showing potent lysis of bladder cancer cells following incubation with the HMBP phosphonate ProPAgen 4d. ProPAgen 4d mediates the specific lysis of T24 bladder cancer cells by Vγ9/Vδ2 T-cells.
Vγ9Vδ2 T cells were expanded from PBMCs in the presence of 5 μM zoledronate for 14 days and 100 U/ml IL-2 (Peprotech) was added into the media every 2-3 days, yielding ~85% Vγ9Vδ2 T cells. […] All cells were then labelled with eFluor780 viability dye and CFSE^+ eFluor780 viability dye^+ cells were measured using flow cytometry. Data were analysed using FlowJo V10.

SMILES | Concentration without CD8+ T cell activation relative to Vγ9/Vδ2 T-cell activation EC50 (human CD8+ T cells) | Activation of CD8+ T cells (human CD8+ T cells) | Vγ9/Vδ2 T-cell activation potency (in words) (human Vγ9/Vδ2+ T cells) | EC50 (human Vγ9/Vδ2+ T cells) | Stability in human serum [1] | T24 bladder cancer lysis by Vγ9/Vδ2 T-cells [2]
C/C(=C\CC(F)(F)P(=O)(N[C@@H](C)C(=O)OCc1ccccc1)Oc1ccccc1)CO (stereo partly shown) [ProPAgen 9d] | approx. 100,000 times | did not exhibit activation | potent Vγ9/Vδ2 T-cells activation | ~8 pM |  | 
C/C(=C\CCP(=O)(N[C@@H](C)C(=O)OCc1ccccc1)Oc1ccccc1)CO (stereo partly shown) [ProPAgen 4d] | approx. 100,000 times | did not exhibit activation | potent Vγ9/Vδ2 T-cells activation | ~8 pM | no degradation observed | significant enhancement
